In ChEMBL document CHEMBL2029263, “New myrsinol diterpenes from Euphorbia prolifera and their inhibitory activities on LPS-induced NO production” (Bioorg Med Chem Lett, 2012):

Columns and labels:
BV-2 [1] = assay: Inhibition of LPS-induced NO production in mouse BV2 cells after 20 hrs by Griess assay; assay type: functional, cell-based; settings: BV-2, 20 h
BV-2 [2] = assay: Cytotoxicity against mouse BV2 cells at effective concentration after 20 hrs by MTT assay; assay type: cell-based; settings: bv-2, 20 h

Structure (SMILES)	IC50 (BV-2 [1]) [µM]	Activity (BV-2 [2])
C=C(C)[C@H]1C=C[C@@H](OC(=O)c2ccccc2)[C@@]23CO[C@@](C)([C@H](OC(=O)c4cccnc4)[C@@]4(OC(C)=O)C[C@H](C)[C@H](OC(=O)CC)[C@@H]4[C@H]2OC(C)=O)[C@H]13	74.3	Non-toxic
CCC(=O)O[C@@H]1[C@@H]2[C@@H](OC(C)=O)[C@@]34CO[C@@](C)([C@H](OC(C)=O)[C@@]2(O)C[C@@H]1C)[C@@H]3[C@@H]1[C@@H](C[C@]1(C)OC(C)=O)[C@@H](OC(=O)c1cccnc1)C4=O [EUPHORBIALOID G]	48.7	Non-toxic
CCC(=O)O[C@@H]1[C@@H]2[C@@H](OC(C)=O)[C@@]34CO[C@@](C)([C@H](OC(=O)c5cccnc5)[C@@]2(OC(C)=O)C[C@@H]1C)[C@@H]3[C@@H]1[C@@H](C[C@]1(C)OC(C)=O)[C@@H](OC(=O)c1ccccc1)C4=O [EUPHORBIALOID H]	64.3	Non-toxic
CCC(=O)O[C@@H]1[C@@H]2[C@@H](OC(C)=O)[C@@]34CO[C@@](C)([C@@H](OC(=O)c5ccccc5)[C@@]2(OC(C)=O)C[C@@]1(C)OC(=O)c1cccnc1)[C@@H]3[C@@H](C(C)(C)OC(C)=O)C=C[C@H]4OC(C)=O [EUPHORBIALOID I]	41.3	Non-toxic
CC(=O)O[C@@H]1[C@H]2[C@@H](OC(=O)c3cccnc3)[C@](C)(OC(=O)C(C)C)C[C@]2(OC(C)=O)[C@H](OC(=O)c2ccccc2)[C@]2(C)OC[C@]13[C@H](OC(C)=O)C=C[C@H](C(C)(C)OC(C)=O)[C@@H]23 [EUPHORBIALOID J]	43.8	Non-toxic

Further compounds by falling IC50 (BV-2 [1]), results first:

IC50 (BV-2 [1]) [µM]	Structure (SMILES)	Activity (BV-2 [2])
80.2	C=C(C)[C@H]1C=C[C@@H](OC(=O)c2cccnc2)[C@@]23CO[C@@](C)([C@H](OC(=O)c4cccnc4)[C@@]4(OC(C)=O)C[C@H](C)[C@H](OC(=O)CC)[C@@H]4[C@H]2OC(C)=O)[C@H]13	Non-toxic
36.5	CCC(=O)O[C@@H]1[C@@H]2[C@@H](OC(C)=O)[C@@]34CO[C@@](C)([C@H](OC(=O)c5cccnc5)[C@@]2(OC(C)=O)C[C@@H]1C)[C@@H]3[C@@H](C(C)(C)OC(C)=O)C=CC4=O [EUPHORBIALOID F]	Non-toxic
35.2	CCCC(=O)O[C@@H]1[C@@H]2[C@@H](OC(=O)c3ccccc3)[C@@]3(COC(=O)c4cccnc4)[C@@H]([C@@H]4[C@H](C[C@H]3OC(C)=O)C4(C)C)[C@](C)(OC(C)=O)C(=O)[C@@]2(O)C[C@@H]1C [EUPHORBIALOID D]	Non-toxic
33.7	CC(=O)O[C@@H]1[C@H]2[C@@H](OC(=O)c3cccnc3)[C@@H](C)C[C@]2(OC(C)=O)[C@@H](OC(C)=O)[C@]2(C)OC[C@]13C(=O)C=C[C@H](C(C)(C)OC(C)=O)[C@@H]23 [EUPHORBIALOID E]	Non-toxic
29.7	CCC(=O)O[C@@H]1[C@@H]2[C@@H](OC(=O)c3ccccc3)[C@@]3(COC(=O)c4cccnc4)[C@@H]([C@@H]4[C@H](C[C@H]3OC(C)=O)C4(C)C)[C@](C)(OC(C)=O)C(=O)[C@@]2(O)C[C@@H]1C [EUPHORBIALOID C]	Non-toxic
19.4	CCC(=O)O[C@@H]1[C@@H]2[C@@H](OC(=O)c3ccccc3)[C@@]3(COC(=O)c4cccnc4)[C@@H]([C@@H]4[C@H](C[C@H]3OC(C)=O)C4(C)C)[C@](C)(O)C(=O)[C@@]2(O)C[C@@H]1C [EUPHORBIALOID A]	Non-toxic
15.6	CC(=O)O[C@@H]1[C@@H]2[C@@H](OC(=O)c3ccccc3)[C@@]3(COC(=O)c4cccnc4)[C@@H]([C@@H]4[C@H](C[C@H]3OC(C)=O)C4(C)C)[C@](C)(O)C(=O)[C@@]2(O)C[C@@H]1C [EUPHORBIALOID B]	Non-toxic
13.2	CSC(=N)N	
